Experiment [1] concerns MRSA. The experiment in a line: MRSA bacteremia model (other IDR peptides). The format is in vivo. As to conditions: 5 mg/kg administered 4 hours prior to infection.
The subject of experiment [2] is male C3H/HeN mice. The experiment in a line: chemotherapy-induced oral and gastrointestinal mucositis in the mouse. The format is in vivo. The following applies: 25 mg/kg IV on Days −1 and 2, scores evaluated for 4 days after induction. How it is done:
In each study, 5-fluorouracil (60 mg/kg IP) was administered to male C3H/HeN mice on Days −4 and −2. […] […] Body weights were also measured daily and colitis severity was determined by video endoscopy on Days 4 and 7. In the first study, RIVPA (SEQ ID NO. 5) (25 mg/kg IV) was administered either once on Day −4 immediately prior to chemotherapy, twice on Days −4 and −2 immediately after chemotherapy or 3 times on Days −1, 2 and 5. […] In the second study, RIVPA (SEQ ID NO. 5) (25 mg/kg IV) was administered on either Days −1, 2 and 5, Days −1, 1 and 3 or Days 0, 2, and 4. […] In the third study, RIVPA (SEQ ID NO. 5) (25 or 5 mg/kg IV, as indicated) was administered either on Days −1, 2 and 5 or on Days 1 and 3. […] Statistical significance was assessed for oral mucositis using a chi-square analysis and for body weight area under the curve (AUC) with an ANOVA on ranks. […] Treatment with R(tBg)V1KR(tBg)V2 (SEQ ID NO. 91) and RIV(mp2)A-NH2 (SEQ ID NO. 92) was administered on Days −1 and 2 at a dose of 25 mg/kg IV.

The test system of experiment [3] is MRSA. Briefly: MRSA skin infection model. The format is in vivo, mouse. As to conditions: 48 or 96 h after bacterial challenge. How it is done:
Infection was initiated 1 day after the hair was removed from the dorsal area of each mouse. RIVPA (SEQ ID NO. 5) (25 mg/kg IV or 100 mg/kg SC) was administered 4 h prior to infection and at various times after infection as indicated. Oral linezolid was used as the comparator and was administered daily at 12.5 mg/kg. On Day 0 (at −1 h) each mouse was anesthetized using isoflurane and the shaved dorsal skin was damaged by 7 consecutive applications and removals of surgical tape. This lesion was then immediately infected by topical administration of 10 μL of the bacterial suspension, delivering a total challenge of 7.6 login cfu per mouse. Efficacy was evaluated by measurement of the bacterial burden in punch biopsies of the skin at 48 h (FIG. 14—panel A) and 96 h (FIG. 14—panel B) following the bacterial challenge and by macroscopic assessment of digital images of the skin by a blinded, board-certified pathologist at 48 h (FIG. 14—panel C) and 96 h (FIG. 14—panel D) after infection. […] The mean bacterial burden for each therapeutic group was statistically compared to that of its time-matched saline control through use of a t-test comparison of means, assuming unequal variances, performed on Excel. Comparisons which returned a p value […] were considered statistically different.

Entries after “also recorded” stand apart in the source; their conditions may differ. *1 amine or outer side, *2 acyl side, *3 side chain or, on linkers, in order; H or OH if unused. Where no end group is shown, it is not given here. [ ]: non-standard residue; d: D form. mp2 = 4-amino-1-methyl-1H-pyrrole-2-carboxylic acid, Cn1cc(N[*:1])cc1C(=O)[*:2]

Turning to “RIVPAY* (RIVPA[dY]; also: C-terminal modification (*)) [RIVPAY* (SEQ ID NO. 90)]”, the survival result in experiment [1] is listed as “improve survival”.
Consider “R(tBg)V1KR(tBg)V2 [R(tBg)V1KR(tBg)V2 (SEQ ID NO. 91)]”, for which, in experiment [2], the “severity of oral mucositis (mucositis scores)” value is recorded as “reduces; also recorded: demonstrated efficacy”. The survival entry in experiment [1] was “improve survival; also recorded: enhances survival”.
As for “RIV(mp2)A-NH2 (RIV[mp2]A-NH2; N-terminus assumed; SMILES CC[C@H](C)[C@H](NC(=O)[C@@H](N)CCCNC(=N)N)C(=O)N[C@H](C(=O)Nc1cc(C(=O)N[C@@H](C)C(N)=O)n(C)c1)C(C)C) [RIV(mp2)A-NH2 (SEQ ID NO. 92), mp2 = 4-Amino-1-methyl-1H-pyrrole-2-carboxylic acid]”, the entries for the “severity of oral mucositis (mucositis scores)” value in experiment [2] and in experiment [2] (listed as 92) were “reduces” and “demonstrated efficacy”, respectively. Also, the survival result in experiment [1] is on record as “enhances survival”.
`CC(=O)NC[C@H]1CN(c2ccc(N3CCOCC3)c(F)c2)C(=O)O1` [linezolid, reference compound]: the “bacterial load in skin punch biopsies relative to control” value in experiment [3] is “neither linezolid nor RIVPA (SEQ ID NO. 5) reduced bacterial load”.

(Values after patent US11311598B2, “Peptides and analogs for use in the treatment of oral mucositis” (Soligenix, Inc., priority 2013, dated 2022).)
